pKi: −log10 of the molar value. Where a name gives a salt, the structure may show the parent alone.

The target in the first test is T1, human 5-HT6 receptor (Homo sapiens, UniProt P50406).
T1 construct: expressed in transfected cells; host or cells: HEK293
T1 sequence (P50406 whole entry): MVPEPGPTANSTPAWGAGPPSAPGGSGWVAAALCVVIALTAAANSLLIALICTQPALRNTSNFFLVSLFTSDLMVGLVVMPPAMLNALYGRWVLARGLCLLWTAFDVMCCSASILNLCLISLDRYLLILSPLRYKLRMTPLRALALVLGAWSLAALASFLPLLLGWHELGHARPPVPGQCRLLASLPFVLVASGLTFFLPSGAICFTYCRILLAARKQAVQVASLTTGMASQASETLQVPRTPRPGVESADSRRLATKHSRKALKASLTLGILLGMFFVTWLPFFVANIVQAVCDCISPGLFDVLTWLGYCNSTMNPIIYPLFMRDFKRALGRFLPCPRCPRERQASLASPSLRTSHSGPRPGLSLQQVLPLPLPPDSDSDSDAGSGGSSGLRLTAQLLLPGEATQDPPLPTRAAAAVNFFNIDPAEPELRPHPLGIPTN
The test can be described thus: 5-HT6 binding assay ([3H]-LSD competition, SPA, membranes of transfected HEK293 cells). The note with it: competitive binding, [3H]-LSD radioligand, Ki calculated from IC50 (Cheng).
As to `COc1ccc(C)cc1S(=O)(=O)Nc1cc(O[C@H]2CCNC[C@H]2F)c2occc2c1` (relative stereo) [Example 84, N-(7-{[cis-3-Fluoropiperidin-4-yl]oxy}-1-benzofuran-5-yl)-2-methoxy-5-methylbenzenesulfonamide hydrochloride], the pKi was 8.12.
Same read-out and setting: for `COc1ccc(C)cc1S(=O)(=O)Nc1cc(O[C@@H]2CCNC[C@H]2F)c2occc2c1` (relative stereo) [Example 85, N-(7-{[trans-3-Fluoropiperidin-4-yl]oxy}-1-benzofuran-5-yl)-2-methoxy-5-methylbenzenesulfonamide hydrochloride] the value was 8.15.
The same measure, in the same setting: next, `O=S(=O)(Nc1cc(O[C@H]2CCNC[C@H]2F)c2occc2c1)c1ccccc1C(F)(F)F` (relative stereo) [Example 86, N-(7-{[cis-3-Fluoropiperidin-4-yl]oxy}-1-benzofuran-5-yl)-2-(trifluoromethyl)benzenesulfonamide hydrochloride]: 8.15; `O=S(=O)(Nc1cc(O[C@@H]2CCNC[C@H]2F)c2occc2c1)c1ccccc1C(F)(F)F` (relative stereo) [Example 87, N-(7-{[trans-3-Fluoropiperidin-4-yl]oxy}-1-benzofuran-5-yl)-2-(trifluoromethyl)benzenesulfonamide hydrochloride]: 8.28.
The same measure, in the same setting: for `Cc1cccc(S(=O)(=O)Nc2cc(O[C@@H]3CCNC[C@H]3F)c3occc3c2)c1` (relative stereo) [Example 89, N-(7-{[trans-3-Fluoropiperidin-4-yl]oxy}-1-benzofuran-5-yl)-3-methylbenzenesulfonamide hydrochloride] the value was 7.85; for `O=S(=O)(Nc1cc(O[C@@H]2CCNC[C@H]2F)c2occc2c1)c1cc(F)ccc1Cl` (relative stereo) [Example 91, 2-Chloro-5-fluoro-N-(7-{[trans-3-fluoropiperidin-4-yl]oxy}-1-benzofuran-5-yl)benzenesulfonamide hydrochloride], 7.25; for `O=S(=O)(Nc1cccc2cc(C3=CN4CCC3CC4)oc12)c1ccccc1` [Example 36, N-[2-(1-Azabicyclo[2.2.2]oct-2-en-3-yl)-1-benzofuran-7-yl]benzenesulfonamide hydrochloride], 7.70.
With `COc1ccc(C)cc1S(=O)(=O)Nc1cc(CN2CCNCC2)c2occc2c1` [Example 54, 2-Methoxy-5-methyl-N-[7-(piperazin-1-ylmethyl)-1-benzofuran-5-yl]benzenesulfonamide hydrochloride], the pKi is 7.76.
Take `CCN1CCC[C@@H]1CNc1cc(NS(=O)(=O)c2ccccc2C(F)(F)F)cc2ccoc12` [Example 67, N-[7-({[(2R)-1-Ethylpyrrolidin-2-yl]methyl}amino)-1-benzofuran-5-yl]-2-(trifluoromethyl)benzenesulfonamide hydrochloride]: the pKi is 7.89.
With `COc1ccc(C)cc1NS(=O)(=O)c1cc(CN2CCNC(C)C2)c2occc2c1` (stereo not shown) [Example 92, N-(2-Methoxy-5-methylphenyl)-7-[(3-methylpiperazin-1-yl)methyl]-1-benzofuran-5-sulfonamide hydrochloride], the pKi is 8.25.

Staying with this test, now noted: over three experiments.
For the compound `NCCc1c[nH]c2ccc(O)cc12` [Example 5-HT, 5-hydroxytryptamine, reference compound], the Hill coefficient is 0.94 (SD 0.09).

The target of another test is T1, human 5-HT6 receptor. As to the kind of experiment: 5-HT6 intrinsic activity assay (inhibition of 5-HT induced increase in cAMP). The note with it: read-out: fKi. The test is classed as cell-based. Here is the method:
Briefly, HEK293/5-HT6 cells were seeded in polylysine coated 96-well plates at a density of 25,000/well and grown in DMEM (Dulbecco's Modified Eagle Medium) (without phenol-red) containing 5% dialyzed Foetal Bovine Serum for 48 h at 37° C. in a 5% CO2 incubator. The medium was then aspirated and replaced by 0.1 mL assay medium (Hanks Balance Salt Solution containing 20 mM HEPES, 1.5 mM isobutylmethylxanthine and 1 mg/mL bovine serum albumin). After addition of test substances, 50 μl dissolved in assay medium, the cells were incubated for 10 min at 37° C. in a 5% CO2 incubator. The medium was again aspirated and the cAMP content was determined using a radioactive cAMP kit (Amersham Pharmacia Biotech, BIOTRAK RPA559).
Table 4. Functional in vitro data at the h-5-HT receptor (fKi). Data are expressed as fKi,=IC50/(1+[5HT]/EC50).
On to `CNCCCN(C)c1cc(NS(=O)(=O)c2ccccc2)cc2ccoc12` [Example 1, N-(7-{Methyl[3-(methylamino)propyl]amino}-1-benzofuran-5-yl)benzenesulfonamide hydrochloride], for which the pKi was 7.06.
For `Fc1ccc(CNc2cc(N3CCNCC3)c3occc3c2)cc1F` [Example 12, N-(3,4-Difluorobenzyl)-7-piperazin-1-yl-1-benzofuran-5-amine hydrochloride], the pKi is 7.06.
The same measure, in the same setting: next, `COc1ccc(C)cc1S(=O)(=O)Nc1cc(-c2ccncc2)c2occc2c1` [Example 28, 2-Methoxy-5-methyl-N-(7-pyridin-4-yl-1-benzofuran-5-yl)benzenesulfonamide]: 7.18; `O=S(=O)(Nc1cc(-c2cncnc2)c2occc2c1)c1ccccc1` [Example 32, N-(7-Pyrimidin-5-yl-1-benzofuran-5-yl)benzenesulfonamide hydrochloride]: 7.27.
On to `COc1ccc(C)cc1S(=O)(=O)Nc1cc(C2=CN3CCC2CC3)c2occc2c1` [Example 33, N-[7-(1-Aza-bicyclo[2.2.2]oct-2-en-3-yl)-benzofuran-5-yl]-2-methoxy-5-methylbenzenesulfonamide hydrochloride], for which the pKi is 7.70.

(Values after US7820675B2, “Benzofuran compounds” (Biovitrum AB, priority 2003, dated 2010).)
